Test results: US20220242870A1, “HETEROCYCLE-FUSED PYRIMIDINE DERIVATIVE AND USE THEREOF” (VORONOI Inc., priority 2019, published 2022)

Assays:
Test in all cases: scanMAX kinase assay panel
Type in all cases: binding
Conditions in all cases: read-out: control percentage (% control)
ARK5 = molecular target: T1, ARK5 (Homo sapiens, UniProt O60285)
T1 construct: purchased DiscoverX (scanMAX panel, contract assay)
Procedure, shortened: (§1)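 Compound was applied as a 1 μM solution in DMSO across the scanMAX kinase panel. Activity is reported as % control, scaled between a positive control (0%) and the DMSO negative control (100%).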

MARK4 = molecular target: T2, MARK4 (Homo sapiens, UniProt Q96L34)
T2 construct: purchased DiscoverX scanMAX kinase assay panel
Procedure, shortened: as §1

MAP4K4 = molecular target: T3, MAP4K4 (Homo sapiens, UniProt O95819)
T3 construct: purchased DiscoverX scanMAX kinase assay panel
Procedure, shortened: as §1

ITK = molecular target: T4, ITK (Homo sapiens, UniProt Q08881)
T4 construct: purchased DiscoverX scanMAX kinase assay panel
Procedure, shortened: as §1

RIOK3 = molecular target: T5, RIOK3 (Homo sapiens, UniProt O14730)
T5 construct: purchased DiscoverX scanMAX kinase assay panel
Procedure, shortened: as §1

NEK10 = molecular target: T6, NEK10 (Homo sapiens, UniProt Q6ZWH5)
T6 construct: purchased DiscoverX scanMAX kinase assay panel
Procedure, shortened: as §1

FES = molecular target: T7, FES (Homo sapiens, UniProt P07332)
T7 construct: purchased DiscoverX scanMAX kinase assay panel
Procedure, shortened: as §1

MET(M1250T) = molecular target: T8, MET(M1250T) (Homo sapiens, UniProt P08581, M1250T)
T8 construct: purchased DiscoverX scanMAX kinase assay panel
Procedure, shortened: as §1

FGR = molecular target: T9, FGR (Homo sapiens, UniProt P09769)
T9 construct: purchased DiscoverX scanMAX kinase assay panel
Procedure, shortened: as §1

CIT = molecular target: T10, CIT (Homo sapiens, UniProt O14578)
T10 construct: purchased DiscoverX (scanMAX panel, contract assay)
Procedure, shortened: as §1

CDKL2 = molecular target: T11, CDKL2 (Homo sapiens, UniProt Q92772)
T11 construct: purchased DiscoverX (scanMAX panel, contract assay)
Procedure, shortened: as §1

DCAMKL3 = molecular target: T12, DCAMKL3 (Homo sapiens, UniProt Q9C098)
T12 construct: purchased DiscoverX (scanMAX panel, contract assay)
Procedure, shortened: as §1

YSK4 = molecular target: T13, YSK4 (Homo sapiens, UniProt Q56UN5)
T13 construct: purchased DiscoverX
Procedure, shortened: as §1

MELK = molecular target: T14, MELK (Homo sapiens, UniProt Q14680)
T14 construct: purchased DiscoverX scanMAX kinase assay panel
Procedure, shortened: as §1

JNK3 = molecular target: T15, JNK3 (Homo sapiens, UniProt P53779)
T15 construct: purchased DiscoverX scanMAX kinase assay panel
Procedure, shortened: as §1

PIP5K2B = molecular target: T16, PIP5K2B (Homo sapiens, UniProt P78356)
T16 construct: purchased DiscoverX scanMAX kinase assay panel
Procedure, shortened: as §1

FLT3 = molecular target: T17, FLT3 (Homo sapiens, UniProt P36888)
T17 construct: purchased DiscoverX scanMAX kinase assay panel
Procedure, shortened: as §1

PIP5K1A = molecular target: T18, PIP5K1A (Homo sapiens, UniProt Q99755)
T18 construct: purchased DiscoverX scanMAX kinase assay panel
Procedure, shortened: as §1

EGFR = molecular target: T19, EGFR (Homo sapiens, UniProt P00533)
T19 construct: purchased DiscoverX scanMAX kinase assay panel
Procedure, shortened: as §1

MEK5 = molecular target: T20, MEK5 (Homo sapiens, UniProt Q13163)
T20 construct: purchased DiscoverX scanMAX kinase assay panel
Procedure, shortened: as §1

DMPK = molecular target: T21, DMPK (Homo sapiens, UniProt Q09013)
T21 construct: purchased DiscoverX scanMAX kinase assay panel
Procedure, shortened: as §1

[1] = molecular target: T22, JAK2(JH1domain-catalytic) (Homo sapiens, UniProt O60674)
T22 construct: JAK2(JH1 domain-catalytic); purchased DiscoverX scanMAX kinase assay panel
Procedure, shortened: as §1

RIOK1 = molecular target: T23, RIOK1 (Homo sapiens, UniProt Q9BRS2)
T23 construct: purchased DiscoverX scanMAX kinase assay panel
Procedure, shortened: as §1

MEK2 = molecular target: T24, MEK2 (Homo sapiens, UniProt P36507)
T24 construct: purchased DiscoverX scanMAX kinase assay panel
Procedure, shortened: as §1

[2] = molecular target: T25, ABL1(T315I)-nonphosphorylated (Homo sapiens, UniProt P00519, T315I)
T25 construct: purchased DiscoverX (scanMAX panel, contract assay)
Procedure, shortened: as §1

MAP3K3 = molecular target: T26, MAP3K3 (Homo sapiens, UniProt Q99759)
T26 construct: purchased DiscoverX scanMAX kinase assay panel
Procedure, shortened: as §1

BLK = molecular target: T27, BLK (Homo sapiens, UniProt P51451)
T27 construct: purchased DiscoverX (scanMAX panel, contract assay)
Procedure, shortened: as §1

CLK4 = molecular target: T28, CLK4 (Homo sapiens, UniProt Q9HAZ1)
T28 construct: purchased DiscoverX (scanMAX panel, contract assay)
Procedure, shortened: as §1

CLK2 = molecular target: T29, CLK2 (Homo sapiens, UniProt P49760)
T29 construct: purchased DiscoverX (scanMAX panel, contract assay)
Procedure, shortened: as §1

[3] = molecular target: T30, ABL1(H396P)-nonphosphorylated (Homo sapiens, UniProt P00519, H396P)
T30 construct: purchased DiscoverX (scanMAX panel, contract assay)
Procedure, shortened: as §1

IRAK3 = molecular target: T31, IRAK3 (Homo sapiens, UniProt Q9Y616)
T31 construct: purchased DiscoverX scanMAX kinase assay panel
Procedure, shortened: as §1

T23 sequence (Q9BRS2 whole entry): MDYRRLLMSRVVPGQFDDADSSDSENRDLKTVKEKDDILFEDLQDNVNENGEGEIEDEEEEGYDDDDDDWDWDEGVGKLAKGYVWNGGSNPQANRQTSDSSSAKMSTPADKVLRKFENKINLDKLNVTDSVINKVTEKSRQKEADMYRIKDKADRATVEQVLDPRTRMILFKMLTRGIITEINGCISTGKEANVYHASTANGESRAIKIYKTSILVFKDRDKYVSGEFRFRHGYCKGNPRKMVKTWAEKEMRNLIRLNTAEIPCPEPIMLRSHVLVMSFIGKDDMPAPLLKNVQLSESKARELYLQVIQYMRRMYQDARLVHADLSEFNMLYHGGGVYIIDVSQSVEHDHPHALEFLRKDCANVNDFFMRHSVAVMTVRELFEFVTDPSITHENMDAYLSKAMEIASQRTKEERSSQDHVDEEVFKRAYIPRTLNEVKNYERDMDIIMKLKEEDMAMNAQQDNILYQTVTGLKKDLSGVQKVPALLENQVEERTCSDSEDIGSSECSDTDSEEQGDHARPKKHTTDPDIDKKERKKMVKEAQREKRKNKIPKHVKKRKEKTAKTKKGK
T6 sequence (Q6ZWH5 whole entry): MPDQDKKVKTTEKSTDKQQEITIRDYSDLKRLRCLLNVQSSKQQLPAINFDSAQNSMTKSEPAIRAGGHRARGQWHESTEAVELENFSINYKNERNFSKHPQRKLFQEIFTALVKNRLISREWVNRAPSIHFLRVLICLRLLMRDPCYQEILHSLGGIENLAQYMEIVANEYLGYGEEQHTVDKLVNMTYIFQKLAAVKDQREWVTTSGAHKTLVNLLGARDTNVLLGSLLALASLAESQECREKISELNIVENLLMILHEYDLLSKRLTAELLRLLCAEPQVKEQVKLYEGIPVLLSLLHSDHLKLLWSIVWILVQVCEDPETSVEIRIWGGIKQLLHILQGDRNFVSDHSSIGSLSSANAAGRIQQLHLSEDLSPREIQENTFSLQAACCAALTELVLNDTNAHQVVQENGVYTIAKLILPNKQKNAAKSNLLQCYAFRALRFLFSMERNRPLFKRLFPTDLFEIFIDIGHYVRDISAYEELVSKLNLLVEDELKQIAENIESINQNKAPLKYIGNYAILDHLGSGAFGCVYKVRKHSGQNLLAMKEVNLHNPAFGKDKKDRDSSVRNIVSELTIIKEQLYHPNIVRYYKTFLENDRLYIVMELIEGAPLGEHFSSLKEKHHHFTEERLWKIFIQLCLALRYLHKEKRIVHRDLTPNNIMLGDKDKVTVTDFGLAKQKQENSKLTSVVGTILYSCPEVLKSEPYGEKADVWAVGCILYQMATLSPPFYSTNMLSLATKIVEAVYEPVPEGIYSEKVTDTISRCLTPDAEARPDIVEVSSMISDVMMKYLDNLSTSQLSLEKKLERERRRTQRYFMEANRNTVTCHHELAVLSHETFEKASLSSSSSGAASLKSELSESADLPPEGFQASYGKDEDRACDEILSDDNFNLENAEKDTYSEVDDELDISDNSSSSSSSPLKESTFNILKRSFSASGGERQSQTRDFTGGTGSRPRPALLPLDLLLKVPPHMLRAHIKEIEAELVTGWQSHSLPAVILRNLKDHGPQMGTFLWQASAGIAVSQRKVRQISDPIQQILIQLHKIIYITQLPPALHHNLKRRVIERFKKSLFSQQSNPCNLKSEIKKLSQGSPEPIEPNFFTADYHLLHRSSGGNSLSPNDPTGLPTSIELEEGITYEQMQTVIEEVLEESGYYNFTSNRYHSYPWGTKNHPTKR
T13 sequence (Q56UN5 whole entry): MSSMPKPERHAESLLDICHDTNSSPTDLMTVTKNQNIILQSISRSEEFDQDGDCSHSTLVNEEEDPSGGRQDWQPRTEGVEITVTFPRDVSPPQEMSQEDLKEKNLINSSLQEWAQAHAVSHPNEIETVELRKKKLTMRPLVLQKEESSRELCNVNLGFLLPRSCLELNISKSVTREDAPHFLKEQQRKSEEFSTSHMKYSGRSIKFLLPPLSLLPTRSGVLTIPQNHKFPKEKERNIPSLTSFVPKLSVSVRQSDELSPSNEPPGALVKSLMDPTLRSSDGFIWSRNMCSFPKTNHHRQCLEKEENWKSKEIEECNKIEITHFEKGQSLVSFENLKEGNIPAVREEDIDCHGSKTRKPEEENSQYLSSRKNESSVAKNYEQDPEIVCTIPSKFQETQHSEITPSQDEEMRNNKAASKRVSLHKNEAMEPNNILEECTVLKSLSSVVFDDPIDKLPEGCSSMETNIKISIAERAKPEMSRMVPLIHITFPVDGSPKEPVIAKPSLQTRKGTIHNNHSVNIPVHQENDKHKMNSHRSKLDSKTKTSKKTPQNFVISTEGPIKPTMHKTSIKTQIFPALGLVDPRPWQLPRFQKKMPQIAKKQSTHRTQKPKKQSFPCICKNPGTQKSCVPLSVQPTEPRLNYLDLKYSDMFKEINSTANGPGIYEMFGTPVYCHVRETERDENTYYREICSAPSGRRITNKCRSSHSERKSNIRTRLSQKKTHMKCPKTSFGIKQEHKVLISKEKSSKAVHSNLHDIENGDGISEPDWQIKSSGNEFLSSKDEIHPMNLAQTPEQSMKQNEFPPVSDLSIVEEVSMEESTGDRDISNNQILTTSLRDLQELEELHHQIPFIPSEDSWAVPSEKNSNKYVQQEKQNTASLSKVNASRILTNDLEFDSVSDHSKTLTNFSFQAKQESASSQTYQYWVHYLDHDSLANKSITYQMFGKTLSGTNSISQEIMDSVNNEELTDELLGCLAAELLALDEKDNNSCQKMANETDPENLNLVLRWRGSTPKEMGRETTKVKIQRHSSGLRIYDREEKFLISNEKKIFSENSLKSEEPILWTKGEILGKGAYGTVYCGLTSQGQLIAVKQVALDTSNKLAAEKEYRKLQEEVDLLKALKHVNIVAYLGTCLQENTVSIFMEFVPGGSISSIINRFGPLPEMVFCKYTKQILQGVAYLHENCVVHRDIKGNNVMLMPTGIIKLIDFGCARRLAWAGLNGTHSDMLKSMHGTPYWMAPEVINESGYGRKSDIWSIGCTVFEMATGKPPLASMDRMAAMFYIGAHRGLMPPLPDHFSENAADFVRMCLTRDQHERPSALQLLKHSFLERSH
T10 sequence (O14578 whole entry): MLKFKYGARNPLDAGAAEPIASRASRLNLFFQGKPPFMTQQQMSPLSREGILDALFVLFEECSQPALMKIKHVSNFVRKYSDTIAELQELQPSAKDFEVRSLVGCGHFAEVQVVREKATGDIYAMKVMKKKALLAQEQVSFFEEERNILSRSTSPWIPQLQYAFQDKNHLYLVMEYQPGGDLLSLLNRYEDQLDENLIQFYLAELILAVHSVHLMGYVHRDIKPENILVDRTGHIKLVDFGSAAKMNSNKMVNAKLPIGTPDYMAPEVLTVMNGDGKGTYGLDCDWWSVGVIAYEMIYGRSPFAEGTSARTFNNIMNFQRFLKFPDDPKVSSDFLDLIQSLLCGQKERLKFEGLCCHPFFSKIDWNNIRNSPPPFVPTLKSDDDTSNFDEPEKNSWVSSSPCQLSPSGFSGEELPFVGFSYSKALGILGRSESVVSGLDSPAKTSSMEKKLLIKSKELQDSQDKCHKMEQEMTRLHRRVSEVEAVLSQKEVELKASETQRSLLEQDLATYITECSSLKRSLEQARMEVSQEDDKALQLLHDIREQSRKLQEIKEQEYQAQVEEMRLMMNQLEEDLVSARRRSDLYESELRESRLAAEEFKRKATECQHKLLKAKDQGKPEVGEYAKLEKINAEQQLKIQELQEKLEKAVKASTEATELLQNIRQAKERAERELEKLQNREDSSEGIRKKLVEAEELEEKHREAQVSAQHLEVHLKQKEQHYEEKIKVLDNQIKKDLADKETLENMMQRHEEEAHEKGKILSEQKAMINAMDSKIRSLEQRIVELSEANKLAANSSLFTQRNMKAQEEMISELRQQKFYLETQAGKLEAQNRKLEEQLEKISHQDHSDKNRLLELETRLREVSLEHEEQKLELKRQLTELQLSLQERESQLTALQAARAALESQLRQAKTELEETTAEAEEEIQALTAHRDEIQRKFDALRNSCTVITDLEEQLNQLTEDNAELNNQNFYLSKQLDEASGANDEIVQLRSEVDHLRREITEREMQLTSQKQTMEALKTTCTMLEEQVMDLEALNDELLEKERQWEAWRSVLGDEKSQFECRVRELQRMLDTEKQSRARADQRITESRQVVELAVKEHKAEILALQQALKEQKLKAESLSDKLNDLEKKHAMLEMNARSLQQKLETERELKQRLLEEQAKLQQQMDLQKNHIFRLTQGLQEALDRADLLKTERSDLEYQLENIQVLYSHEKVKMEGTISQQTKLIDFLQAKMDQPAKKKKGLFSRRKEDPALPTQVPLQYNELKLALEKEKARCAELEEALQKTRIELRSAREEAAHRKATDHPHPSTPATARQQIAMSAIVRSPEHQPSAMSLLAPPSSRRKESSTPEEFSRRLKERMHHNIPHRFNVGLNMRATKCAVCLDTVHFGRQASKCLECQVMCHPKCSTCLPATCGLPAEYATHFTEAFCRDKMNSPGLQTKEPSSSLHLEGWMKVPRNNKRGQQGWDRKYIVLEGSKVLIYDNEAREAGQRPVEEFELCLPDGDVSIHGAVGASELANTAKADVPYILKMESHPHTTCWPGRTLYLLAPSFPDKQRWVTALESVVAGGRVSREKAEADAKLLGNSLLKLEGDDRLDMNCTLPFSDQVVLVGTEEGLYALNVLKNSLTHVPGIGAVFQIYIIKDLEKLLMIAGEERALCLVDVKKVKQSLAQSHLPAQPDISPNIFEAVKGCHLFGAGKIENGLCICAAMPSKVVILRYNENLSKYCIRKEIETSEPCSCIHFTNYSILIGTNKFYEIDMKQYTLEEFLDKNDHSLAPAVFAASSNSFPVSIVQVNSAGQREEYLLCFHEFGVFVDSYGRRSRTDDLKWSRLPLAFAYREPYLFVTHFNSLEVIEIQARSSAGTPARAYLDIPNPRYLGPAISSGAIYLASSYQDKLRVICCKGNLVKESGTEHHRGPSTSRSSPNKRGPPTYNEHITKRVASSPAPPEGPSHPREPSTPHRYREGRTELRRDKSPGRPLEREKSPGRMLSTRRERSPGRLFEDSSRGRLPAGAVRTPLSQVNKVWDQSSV

SMILES: CN1CCN(c2ccc(Nc3nc(N4OCC[C@H]4c4ccccc4)c4cc[nH]c4n3)cc2)CC1 [Example 74, (S)-N-(4-(4-methylpiperazin-1-yl)phenyl)-4-(3-phenylisoxazolidin-2-yl)-7H-pyrrolo[2,3-d]pyrimidin-2-amine]
- remaining binding at 1 µM (ARK5): 8.9%
- remaining binding at 1 µM (MARK4): 18%
- remaining binding at 1 µM (MAP4K4): 30%
- remaining binding at 1 µM (ITK): 5.1%
- remaining binding at 1 µM (RIOK3): 3.6%
- remaining binding at 1 µM (NEK10): 0%
- remaining binding at 1 µM (FES): 32%
- remaining binding at 1 µM (MET(M1250T)): 11%
- remaining binding at 1 µM (FGR): 17%
- remaining binding at 1 µM (CIT): 0.3%
- remaining binding at 1 µM (CDKL2): 8.2%
- remaining binding at 1 µM (DCAMKL3): 15%
- remaining binding at 1 µM (YSK4): 8.6%
- remaining binding at 1 µM (MELK): 2%
- remaining binding at 1 µM (JNK3): 4.5%
- remaining binding at 1 µM (PIP5K2B): 18%
- remaining binding at 1 µM (FLT3): 3.9%
- remaining binding at 1 µM (PIP5K1A): 1.2%
- remaining binding at 1 µM (EGFR): 28%
- remaining binding at 1 µM (MEK5): 26%
- remaining binding at 1 µM (DMPK): 0.65%
- remaining binding at 1 µM [1]: 0%
- remaining binding at 1 µM (RIOK1): 5.5%
- remaining binding at 1 µM (MEK2): 17%
- remaining binding at 1 µM [2]: 29%
- remaining binding at 1 µM (MAP3K3): 25%
- remaining binding at 1 µM (BLK): 19%
- remaining binding at 1 µM (CLK4): 6.4%
- remaining binding at 1 µM (CLK2): 9.2%
- remaining binding at 1 µM [3]: 18%
- remaining binding at 1 µM (IRAK3): 24%
